# Key:
# αvβ5 = biological target: T1, αvβ5 (Homo sapiens, UniProt P06756+P18084); test: Cell adhesion assay, HT29 on vitronectin; assay type: cell-based
# T1 construct: Cells HT29, K562, or K562 transfected with αvβ3; endogenous in cells; host or cells: HT29
# Procedure: (§1) The wells of 96-well plates (Immunolon) were coated, by incubation overnight at 4° C., with 5 ug/mL vitronectin, 2 ug/mL osteopontin, or fibronectin or 10 mg/mL BSA in PBS. The protein solution was flicked out and the wells were blocked with 10 mg/mL BSA (0.1 mL) for 1-2 hours at 37° C. […] Cells were lifted with trypsin-EDTA and washed two times with Hank's balanced salt solution minus cations (Sigma) supplemented with 1 mM MgCl2 Cells (75,000 cells/well) were added to coated plates in triplicate and allowed to attach at 37° C. for 1 hour in the presence or absence of specific antibodies (5 ug/mL) or 10-fold dilutions of compounds of interest starting at 10 uM. Nonadherent cells were removed by gentle washing twice with PBS. The adherent cells were solubilized with 1% triton x-100 and detected using a fluorescence plate reader (DYNEX Technologies). The number of attached cells was calculated based upon standard curves for each cell line used in the experiment.
# α5β1 = biological target: T2, α5β1 (Homo sapiens, UniProt P05556+P08648); test: Cell adhesion assay, K562 on fibronectin; assay type: cell-based; details: K562 cells, adhesion to fibronectin, 1 hour
# T2 construct: Cells HT29, K562, or K562 transfected with αvβ3; endogenous in cells; host or cells: K562
# Procedure: The wells of 96-well plates (Immunolon) were coated, by incubation overnight at 4° C., with 5 ug/mL vitronectin, 2 ug/mL osteopontin, or fibronectin or 10 mg/mL BSA in PBS. The protein solution was flicked out and the wells were blocked with 10 mg/mL BSA (0.1 mL) for 1-2 hours at 37° C. Cells HT29, K562, or K562 transfected with αvβ3 (Blystone et al., 1994) were loaded with a fluorescent marker, 5-chloromethylfluorescein diacetate (Molecular Probes, Eugene, Oreg.) for 1 hour at 37° C., then incubated in fresh medium without the fluorescent marker for 1 hour. Cells were lifted with trypsin-EDTA and washed two times with Hank's balanced salt solution minus cations (Sigma) supplemented with 1 mM MgCl2 Cells (75,000 cells/well) were added to coated plates in triplicate and allowed to attach at 37° C. for 1 hour in the presence or absence of specific antibodies (5 ug/mL) or 10-fold dilutions of compounds of interest starting at 10 uM. Nonadherent cells were removed by gentle washing twice with PBS. The adherent cells were solubilized with 1% triton x-100 and detected using a fluorescence plate reader (DYNEX Technologies). The number of attached cells was calculated based upon standard curves for each cell line used in the experiment. Non-specific cell attachment (attachment to wells coated with BSA) was always less than 5%.
# αvβ3 = biological target: T3, αvβ3 (Homo sapiens, UniProt P05106+P06756); test: Cell adhesion assay, K562-tr on osteopontin; assay type: cell-based
# T3 construct: expressed in transfected cells; host or cells: K562
# Procedure: as §1
# [1] = test system: Chick chorioallantoic membrane (CAM) capillary formation driven by VPF/VEGF165; test: Chick chorioallantoic membrane (CAM) mesh assay; assay type: in vivo, chicken; details: significant if >25%
# Procedure: Fertilized white leghorn chicken eggs (SPAFAS Inc., Norwich, Conn.) were received at day 0 and incubated for 3 days at 37 C with constant humidity. On day 3, eggs were rinsed with 70% ethanol and opened into 100 mm^2 tissue culture coated Petri dishes under aseptic conditions. The embryos were then returned to a humidified 38 C incubator for 7-9 additional days.
# Vitrogen (Collagen Biomaterials, Palo Alto, Calif.) at a final concentration of 0.73 mg/mL and Matrigel (Becton Dickinson, Bedford, Mass.) at a final concentration of 10 mg/mL was directly pipetted onto Nylon meshes with 250 μm^2 openings which were cut into 4 mm×4 mm squares and autoclaved. Polymerization of meshes were under aseptic conditions, on bacteriological Petri dishes. The polymerization conditions for each substrate were identical; after mixing with or without 250 μg of VPF/VEGF165 (Peprotech, Rocky Hill, N.J.) and/or compounds of interest, 40 μL were pipetted onto each mesh in a bacteriological Petri dish. The Petri dish was placed in a humidified 37 C incubator with 5% CO2 for 30 minutes to allow polymerization followed by an incubation at 4° C. for 2 hours.
# In a tissue culture enclosure, meshes were placed onto the periphery of the CAM of a day 12-14 embryo, excluding areas containing major vessels. The embryos were then returned to the humidified 38° C. incubator with 3% CO2 for 24 to 48 additional hours.
# Embryos were removed from the incubator and meshes were viewed under a dissecting microscope for gross evaluation. Injection of 400 μL FITC dextran, MW 2,000,000 (Sigma, St. Louis, Mo.) through glass microcapillary tubes by infusion into the umbilical vein was performed at a rate of 200 μl per minute. The FITC dextran was allowed to circulate for 5 minutes and 3.7% formaldehyde in PBS was applied directly on each mesh. The embryos were then incubated at 40° C. for 5 minutes and the meshes were dissected off the CAM and fixed in 3.7% formaldehyde for 10 minutes to overnight.
# After fixation, meshes were mounted on slides with 90% glycerol in PBS and visualized on an inverted fluorescence microscope. A Nikon Diaphot with a Sony DXC-151A camera attached to the side port was used for capture of images and analysis was with the NIH Image 1.61 software program. For each mesh, 5 random staggered images (approximately 600 μm each) were captured. The areas of high intensity were highlighted and measured. Results are expressed as ability to suppress capillary formation after subtraction from negative control. Values were calculated as a inhibition, considering 100% the capillary density achieved by VPF in the presence of vitrogen alone minus the bakground levels in the absence of VPF. Negative values indicated angiogenic stimulation above the VPF positive control.
# placental αvβ3 = biological target: T4, placental αvβ3 (Homo sapiens, UniProt P05106+P06756); test: Fibrinogen binding to immobilized αvβ3
# T4 construct: placental αvβ3 at 0.5 ug/mL; from tissue; host or cells: placenta
# Procedure: The wells of plastic microtiter plates were coated overnight at 4° C. with purified active αIIbβ3 (Calbiochem) or placental αvβ3 at 0.5 ug/mL (100 uL/well) in a buffer containing 150 mM NaCl, 20 mM Tris, pH 7.4, 1 mM MgCl2, 0.2 mM MnCl2, and including 1 mM CaCl2 for αIIbβ3. Blocking of nonspecific sites was achieved by incubating the wells with 35 mg/mL bovine serum albumin (BSA) for at least 2 hours at 37° C. Biotinylated-fibrinogen (10 nM) was added in 0.2 mL binding buffer (100 mM NaCl, 50 mM Tris, pH 7.4, 1 mM MgCl2, 0.2 mM MnCl2 and 1 mg/mL BSA including 1 mM CaCl2 for αIIbβ3) to the wells in triplicate in the absence or presence of increasing concentrations of compounds of interest (0.001-100 uM) and further incubated for 2 hours at 37° C. Nonbound fibrinogen was removed by five washes with binding buffer. Avidin conjugated to alkaline phosphatase (Sigma), diluted in binding buffer, was added and incubated for two hours at 37° C. The plates were washed five times with binding buffer, and after addition of the substrate PNPP (Pierce), the enzyme activity was measured by the absorbance at 405 nm.
# T1 sequence (P06756 31-889 limits assumed): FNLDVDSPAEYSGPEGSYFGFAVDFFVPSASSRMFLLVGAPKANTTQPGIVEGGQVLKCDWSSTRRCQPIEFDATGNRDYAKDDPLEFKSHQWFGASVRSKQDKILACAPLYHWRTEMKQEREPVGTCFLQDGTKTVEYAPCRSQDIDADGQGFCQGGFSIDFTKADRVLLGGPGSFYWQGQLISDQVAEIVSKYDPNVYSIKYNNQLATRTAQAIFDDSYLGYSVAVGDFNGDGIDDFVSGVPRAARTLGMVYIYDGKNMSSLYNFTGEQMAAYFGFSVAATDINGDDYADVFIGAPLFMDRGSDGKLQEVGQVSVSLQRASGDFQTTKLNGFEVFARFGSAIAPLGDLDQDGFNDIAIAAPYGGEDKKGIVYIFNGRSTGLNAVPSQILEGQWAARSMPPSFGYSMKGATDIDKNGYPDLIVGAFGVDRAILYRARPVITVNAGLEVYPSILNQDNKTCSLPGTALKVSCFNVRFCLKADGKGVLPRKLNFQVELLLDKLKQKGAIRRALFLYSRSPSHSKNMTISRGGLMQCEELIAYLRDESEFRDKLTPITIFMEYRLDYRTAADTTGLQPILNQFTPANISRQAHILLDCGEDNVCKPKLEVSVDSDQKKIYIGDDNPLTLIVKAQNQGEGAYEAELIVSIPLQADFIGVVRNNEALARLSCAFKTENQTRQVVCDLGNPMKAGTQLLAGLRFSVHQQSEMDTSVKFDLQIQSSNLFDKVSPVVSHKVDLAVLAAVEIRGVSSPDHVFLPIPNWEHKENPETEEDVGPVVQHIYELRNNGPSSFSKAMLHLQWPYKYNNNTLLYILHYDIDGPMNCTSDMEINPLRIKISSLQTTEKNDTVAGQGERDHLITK
# T1 sequence (P06756 891-1048 partner limits assumed): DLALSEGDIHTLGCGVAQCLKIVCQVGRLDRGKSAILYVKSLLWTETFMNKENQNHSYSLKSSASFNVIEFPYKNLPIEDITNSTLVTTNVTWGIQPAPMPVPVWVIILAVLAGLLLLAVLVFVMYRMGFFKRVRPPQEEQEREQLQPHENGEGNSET
# T1 sequence (P18084 24-799): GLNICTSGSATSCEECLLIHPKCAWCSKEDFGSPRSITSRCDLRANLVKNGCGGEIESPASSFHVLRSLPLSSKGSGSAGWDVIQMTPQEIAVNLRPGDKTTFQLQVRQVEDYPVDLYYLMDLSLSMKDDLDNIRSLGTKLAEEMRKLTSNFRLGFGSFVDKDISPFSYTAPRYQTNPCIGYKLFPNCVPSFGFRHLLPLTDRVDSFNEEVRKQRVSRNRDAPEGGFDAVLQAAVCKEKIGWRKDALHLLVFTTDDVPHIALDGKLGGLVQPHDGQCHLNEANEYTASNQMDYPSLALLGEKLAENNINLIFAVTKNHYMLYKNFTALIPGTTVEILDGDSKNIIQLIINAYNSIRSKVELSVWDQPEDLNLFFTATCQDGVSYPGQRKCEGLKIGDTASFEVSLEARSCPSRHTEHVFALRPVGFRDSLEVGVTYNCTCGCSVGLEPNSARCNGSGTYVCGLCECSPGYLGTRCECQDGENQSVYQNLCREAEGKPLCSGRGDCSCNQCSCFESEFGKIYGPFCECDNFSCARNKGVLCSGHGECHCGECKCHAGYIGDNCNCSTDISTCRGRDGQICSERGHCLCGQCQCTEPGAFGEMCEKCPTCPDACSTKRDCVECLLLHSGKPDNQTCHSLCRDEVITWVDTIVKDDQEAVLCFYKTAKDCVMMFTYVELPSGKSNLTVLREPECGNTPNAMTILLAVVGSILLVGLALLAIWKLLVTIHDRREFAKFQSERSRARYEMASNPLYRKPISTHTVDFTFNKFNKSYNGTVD
# T4 sequence (P06756 31-889 limits assumed): as the sequence (P06756 31-889 limits assumed) above
# T4 sequence (P06756 891-1048 partner limits assumed): as the sequence (P06756 891-1048 partner limits assumed) above
# T4 sequence (P05106 27-788): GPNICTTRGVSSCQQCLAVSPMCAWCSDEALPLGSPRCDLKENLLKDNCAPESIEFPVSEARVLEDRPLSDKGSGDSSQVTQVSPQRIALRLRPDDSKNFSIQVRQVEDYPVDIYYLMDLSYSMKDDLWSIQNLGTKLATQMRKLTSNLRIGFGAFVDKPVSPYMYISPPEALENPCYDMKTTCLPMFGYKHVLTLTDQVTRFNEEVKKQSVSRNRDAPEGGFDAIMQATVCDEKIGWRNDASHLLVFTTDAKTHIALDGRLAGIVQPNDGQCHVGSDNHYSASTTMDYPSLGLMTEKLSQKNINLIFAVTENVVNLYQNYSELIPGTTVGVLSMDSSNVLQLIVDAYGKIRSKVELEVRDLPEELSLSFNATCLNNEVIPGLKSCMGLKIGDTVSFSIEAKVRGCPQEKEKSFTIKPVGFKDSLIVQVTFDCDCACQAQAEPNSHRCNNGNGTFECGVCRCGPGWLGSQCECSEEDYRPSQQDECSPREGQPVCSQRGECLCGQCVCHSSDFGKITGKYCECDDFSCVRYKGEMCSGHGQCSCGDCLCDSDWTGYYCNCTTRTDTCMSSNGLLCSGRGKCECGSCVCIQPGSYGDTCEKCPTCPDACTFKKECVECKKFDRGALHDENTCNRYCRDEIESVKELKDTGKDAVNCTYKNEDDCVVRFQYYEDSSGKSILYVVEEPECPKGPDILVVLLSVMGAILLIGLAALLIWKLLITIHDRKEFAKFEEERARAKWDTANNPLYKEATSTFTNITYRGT
# T3 sequence (P06756 31-889 limits assumed): as the sequence (P06756 31-889 limits assumed) above
# T3 sequence (P06756 891-1048 partner limits assumed): as the sequence (P06756 891-1048 partner limits assumed) above
# T3 sequence (P05106 27-788): as the sequence (P05106 27-788) above
# T2 sequence (P08648 42-894 limits assumed): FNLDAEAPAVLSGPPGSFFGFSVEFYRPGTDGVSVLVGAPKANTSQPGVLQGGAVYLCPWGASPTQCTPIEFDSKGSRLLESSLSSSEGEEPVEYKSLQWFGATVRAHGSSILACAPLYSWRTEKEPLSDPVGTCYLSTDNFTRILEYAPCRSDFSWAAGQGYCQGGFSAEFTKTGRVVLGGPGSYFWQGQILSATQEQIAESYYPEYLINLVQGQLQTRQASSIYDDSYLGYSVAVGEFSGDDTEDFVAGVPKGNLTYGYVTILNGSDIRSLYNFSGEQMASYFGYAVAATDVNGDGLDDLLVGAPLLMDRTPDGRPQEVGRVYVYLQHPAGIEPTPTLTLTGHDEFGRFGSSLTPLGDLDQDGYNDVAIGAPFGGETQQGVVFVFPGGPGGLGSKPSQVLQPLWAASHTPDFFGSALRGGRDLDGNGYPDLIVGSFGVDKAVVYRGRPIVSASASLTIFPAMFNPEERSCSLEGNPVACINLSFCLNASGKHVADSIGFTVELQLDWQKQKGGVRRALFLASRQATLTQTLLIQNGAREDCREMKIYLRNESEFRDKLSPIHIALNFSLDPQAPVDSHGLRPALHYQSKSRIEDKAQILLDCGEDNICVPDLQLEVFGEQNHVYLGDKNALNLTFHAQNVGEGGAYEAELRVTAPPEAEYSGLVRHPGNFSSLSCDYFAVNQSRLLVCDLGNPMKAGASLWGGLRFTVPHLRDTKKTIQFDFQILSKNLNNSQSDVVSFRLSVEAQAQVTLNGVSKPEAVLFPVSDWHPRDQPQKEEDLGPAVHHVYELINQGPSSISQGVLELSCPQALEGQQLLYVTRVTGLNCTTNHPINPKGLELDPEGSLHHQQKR
# T2 sequence (P08648 895-1049 partner limits assumed): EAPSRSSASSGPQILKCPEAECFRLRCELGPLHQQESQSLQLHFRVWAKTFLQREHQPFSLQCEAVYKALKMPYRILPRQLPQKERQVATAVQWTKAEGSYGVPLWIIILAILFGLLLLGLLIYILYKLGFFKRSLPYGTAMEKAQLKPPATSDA
# T2 sequence (P05556 21-798): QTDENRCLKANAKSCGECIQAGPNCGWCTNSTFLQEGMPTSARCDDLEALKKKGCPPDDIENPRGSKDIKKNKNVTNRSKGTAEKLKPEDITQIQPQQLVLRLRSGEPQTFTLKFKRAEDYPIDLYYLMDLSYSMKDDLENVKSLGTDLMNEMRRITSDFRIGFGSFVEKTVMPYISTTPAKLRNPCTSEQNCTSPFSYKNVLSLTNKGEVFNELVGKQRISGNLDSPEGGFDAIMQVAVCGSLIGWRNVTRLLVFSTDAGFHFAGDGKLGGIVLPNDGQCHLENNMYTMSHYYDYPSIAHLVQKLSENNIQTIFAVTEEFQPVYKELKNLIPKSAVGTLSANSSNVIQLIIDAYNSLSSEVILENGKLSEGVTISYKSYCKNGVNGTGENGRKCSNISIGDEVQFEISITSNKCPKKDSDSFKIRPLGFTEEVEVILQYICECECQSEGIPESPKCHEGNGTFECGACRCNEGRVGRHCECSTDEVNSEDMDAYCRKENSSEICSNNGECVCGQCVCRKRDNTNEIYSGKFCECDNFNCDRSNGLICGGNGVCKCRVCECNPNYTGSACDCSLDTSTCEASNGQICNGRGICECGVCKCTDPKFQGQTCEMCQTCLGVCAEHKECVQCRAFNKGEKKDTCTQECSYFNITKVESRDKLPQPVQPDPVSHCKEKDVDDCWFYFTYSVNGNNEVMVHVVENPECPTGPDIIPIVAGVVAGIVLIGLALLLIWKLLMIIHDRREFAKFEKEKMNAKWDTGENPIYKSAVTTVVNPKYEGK
structure (smiles),measurement,setting,value
"NCCCNC(=O)c1ccc(C(=O)NC(CC(=O)O)c2ccccc2)s1.O=C(O)C(F)(F)F (centres unmarked) [Compound VII, 3-{[5-(3-Amino-propylcarbamoyl)-thiophene-2-carbonyl]-amino}-3-phenyl-propionic acid trifluoroacetic acid salt]",IC50,αvβ5,> 10 µM
same,IC50,α5β1,> 10 µM
same,IC50,αvβ3,> 10 µM
same,% of inhibition at 33 μg/mesh in the presence of VEGF,[1],34%
same,IC50,placental αvβ3,6.6 µM
